The values below come from patent US4324801A, “Phenylguanidine acetylsalicylate compounds, process for production thereof, and pharmaceutical composition thereof” (Banyu Pharmaceutical Co. Ltd., priority 1981, dated 1982).

Converted amounts (≈) assume the structure as drawn. Read-outs that look alike come from different tables or passages of the source.

For one data set, the system named is rats. The data set is described as follows: Antipyretic activity (peptone-induced rise in rectal temperature). It is filed as in vivo, rat (male). The following applies: against the control, oral, 200 mg/kg, rat; 5% peponte s.c. (0.5 ml/100 g).
In data set [1] the test system is mice. The conditions noted are these: oral.
The next data set deals with prostaglandin synthesis. The data set is described as follows: Inhibition of prostaglandin synthesis in washed platelet suspension (malondialdehyde formation after arachidonic acid). The following applies: in vitro; for IC50: read-out: IC50 (final concentration at 50% inhibition of malondialdehyde formation). It is filed as cell-based. On the procedure:
Each of the compounds shown in Table 1 was tested to measure the inhibition of prostaglandin synthesis in a washed platelet suspension by measuring the malondialdehyde formation following the addition of arachidonic acid in vitro.

For data set [2], the system named is platelet aggregation in rabbit's platelet-rich plasma (PRP). The data set is described as follows: cells. The format is cell-based. The conditions noted are these: collagen as aggregation inducer; for IC50: Oryctolagus cuniculus, Platelet, read-out: IC50 (final concentration at 50% inhibition of platelet aggregation). On the procedure: This was measured by the method of Born et al. Specifically, using collagen as an aggregation inducer, each of the compounds shown in Table 1 was tested to measure the inhibition of platelet aggregation in rabbit's platelet-rich plasma (PRP). Aspirin and mefenamic acid were used as controls.
^(*) Final concentration at 50% inhibition of platelet aggregation.

The next data set deals with guinea pigs. The data set is described as follows: Anti-inflammatory activity (ultraviolet irradiation on the back of guinea pigs). The format is in vivo, guinea pig (male). From the text:
Male guinea pigs having a body weight of about 350 g were used. The back hair of each guinea pig was removed, and ultraviolet light was irradiated onto the back.

The next data set in a line: in vivo. The conditions noted are these: mouse, po.
Data set [3] deals with mice. In words: Analgesic activity (acetic acid writhing method). The format is in vivo, mouse (male). The conditions noted are these: oral, intravenous, intraperitoneal, compared against aspirin and mefenamic acid, writhings counted 5 to 25 minutes after acetic acid. On the procedure: The analgesic activity was tested by the acetic acid writhing method. Male mice having a body weight of 18 to 20 g were used. Each of the compounds shown in Table 1 was administered orally, intravenously and intraperitoneally, and then 0.2 ml of a 0.7% aqueous solution of acetic acid was administered intraperitoneally 60 minutes (in oral administration), 10 minutes (in intravenous administration), and 15 minutes (in intraperitoneal administration) after the administration of the test compounds.
Background: An intraperitoneal irritant provokes the stretching counted in writhing tests.

[4] abbreviates: oral, one hour before UV irradiation, guinea pigs.

Source text for rats: Male rats having a body weight of 200 to 250 g were used.
^(*) Inhibiting ratio against the control in oral administration at a

Usually LD50 stands for the dose at which mortality reaches 50%. A low value points to greater toxicity. Usually ED50 stands for the midpoint of the dose-response relation. Regarding “4-Carbamoylphenylguanidine acetylsalicylate [Compound 16]”, the Inhibiting ratio with rats came out at 72.0%. In the data set with mice [1], the 50% lethal dose (LD50) stood at 1600 mg/kg. In addition, the “IC50 (final concentration at 50% inhibition of malondialdehyde formation)” value in the data set on prostaglandin synthesis was found to be 4.5 mg/L. Besides, the “IC50 (final concentration at 50% inhibition of platelet aggregation)” value in data set [2] was 12.5 mg/L. The molecule also returned an ED50 in the data set on guinea pigs (setting [4]) of 200 mg/kg.

In the data set on mice [1], “3-Hydroxy-4-carboethoxyphenylguanidine acetylsalicylate [Compound 17]” returned an LD50 of 1100 mg/kg.

As to “2-methylphenylguanidine acetylsalicylate [Compound 2]”, the Inhibiting ratio in the data set on rats is 88.1%. This molecule gave an LD50 in the data set on mice [1] of 400 mg/kg. Besides, the “IC50 (final concentration at 50% inhibition of malondialdehyde formation)” value in the data set with prostaglandin synthesis was 3.4 mg/L. Further, the “IC50 (final concentration at 50% inhibition of platelet aggregation)” value in data set [2] was determined as 10.5 mg/L. The ED50 in the data set on guinea pigs (setting [4]) stood at 65 mg/kg.

In turn, `CC(=O)Oc1ccccc1C(=O)O` [Aspirin, acetylsalicylic acid, reference compound] gave an LD50 in the data set “in vivo” of 950 mg/kg. In the data set on rats, the Inhibiting ratio came out at 81.0%. Moreover, the IC50 in the data set on prostaglandin synthesis stood at 2.4 mg/L (≈ 13.3 µM); in data set [2] it was 12.6 mg/L (≈ 69.9 µM). Further, the 50% effective dose (ED50) in the data set with guinea pigs (Cavia porcellus, light or radiation study, po, 1 h) stood at 90 mg/kg.

For the molecule “3,4-dimethylphenylguanidine acetylsalicylate [Compound 5]”, the “IC50 (final concentration at 50% inhibition of malondialdehyde formation)” value in the data set on prostaglandin synthesis was determined as 4.8 mg/L. In addition, in the data set with mice [3], the analgesic activity result is “a marked analgesic activity”. Besides, in data set [2], the “IC50 (final concentration at 50% inhibition of platelet aggregation)” value was 2.0 mg/L. Also, the ED50 in the data set on guinea pigs (setting [4]) was determined as 85 mg/kg.

In the case of “4-Methoxyphenylguanidine acetylsalicylate [Compound 11]”, in the data set on rats, the Inhibiting ratio is listed as 25.2%. Further, the LD50 in the data set with mice [1] was 300 mg/kg. Further, the “IC50 (final concentration at 50% inhibition of malondialdehyde formation)” value with prostaglandin synthesis came out at 3.3 mg/L. The “IC50 (final concentration at 50% inhibition of platelet aggregation)” value in data set [2] amounted to 9.6 mg/L. This molecule registered an ED50 with guinea pigs (setting [4]) of 95 mg/kg.

As to “4-methylphenylguanidine acetylsalicylate [Compound 4]”, the Inhibiting ratio with rats is listed as 83.9%. In the data set on mice [1], the LD50 was 600 mg/kg. Also, the “IC50 (final concentration at 50% inhibition of malondialdehyde formation)” value with prostaglandin synthesis turned out to be 2.4 mg/L. Further, the “IC50 (final concentration at 50% inhibition of platelet aggregation)” value in data set [2] amounted to 4.5 mg/L. The same molecule came in with an ED50 in the data set with guinea pigs (setting [4]) of 90 mg/kg.

`Cc1cccc(Nc2ccccc2C(=O)O)c1C` [Mefenamic acid, reference compound]: the results for the IC50 (in the data set with prostaglandin synthesis; in data set [2]) were 1.4 mg/L (≈ 5.8 µM) and more than 20 mg/L, respectively. Moreover, the ED50 in the data set with guinea pigs (Cavia porcellus, light or radiation study, 1 h, oral, one hour before UV irradiation, guinea pigs, read-out: ED50) is 30 mg/kg.

As for `CC(=O)Oc1ccccc1C(=O)O.N=C(N)Nc1ccccc1` [Compound 1], the Inhibiting ratio in the data set with rats worked out at 74.1%. The molecule further gave an LD50 with mice [1] of 400 mg/kg. Further, the “IC50 (final concentration at 50% inhibition of malondialdehyde formation)” value in the data set on prostaglandin synthesis stood at 4.3 mg/L. Moreover, the “IC50 (final concentration at 50% inhibition of platelet aggregation)” value in data set [2] was 6.0 mg/L. Besides, in the data set on guinea pigs (setting [4]), the ED50 amounted to 140 mg/kg.

As to “4-ethoxyphenylguanidine acetylsalicylate [Compound 13]”, the Inhibiting ratio in the data set with rats is recorded as 62.9%. Besides, in the data set on mice [1], the LD50 was 600 mg/kg. Further, the “IC50 (final concentration at 50% inhibition of malondialdehyde formation)” value in the data set on prostaglandin synthesis stood at 4.0 mg/L. In addition, in data set [2], the “IC50 (final concentration at 50% inhibition of platelet aggregation)” value worked out at 12.2 mg/L. In addition, the ED50 with guinea pigs (setting [4]) is 85 mg/kg.

As for “3-methylphenylguanidine acetylsalicylate [Compound 3]”, in the data set with rats, the Inhibiting ratio came out at 28.0%. In the data set with mice [1], this molecule registered an LD50 of 400 mg/kg. In addition, the “IC50 (final concentration at 50% inhibition of malondialdehyde formation)” value in the data set on prostaglandin synthesis is 3.7 mg/L. In data set [2], the “IC50 (final concentration at 50% inhibition of platelet aggregation)” value was found to be 7.0 mg/L. Besides, in the data set on guinea pigs (setting [4]), the ED50 worked out at 110 mg/kg.
